What all share (type): cell-based
Experiment [1] has as its system H929. The experiment in a line: Cell proliferation assay, H929 (multiple myeloma). The conditions noted are these: Homo sapiens, NCI-H929, 72 hours in presence of compound. As to the method:
(§1) Seventeen cancer derived cell lines are used (GTL-16, N87, H1975, A549, H69, A2780, PC3, BT474, SKBR3, MCF-7, A375, MV4;11, K562, KM12L4A, H929, OPM-2 and KMS-11) to test the effect of (R)-2-amino-7-[2-(6-methoxy-pyridin-2-yl)-phenyl]-4-methyl-7,8-dihydro-6H-pyrido[4,3-d]pyrimidin-5-one. These cell lines cover the following 9 tumor types: Gastric, Lung, Ovarian, Prostate, Breast, Melanoma, Leukemia, Colon and Multiple myeloma. After division and medium change, cells from stock culture are seeded on cell plates and cultured for about 18 hours to allow cell growth and attachment before starting the assay. Then on the first day of the assay, (R)-2-amino-7-[2-(6-methoxy-pyridin-2-yl)-phenyl]-4-methyl-7,8-dihydro-6H-pyrido[4,3-d]pyrimidin-5-one is added to the medium at various concentrations. Cells are cultured up to 72 or 96 hours and cell proliferation is determined using commercially available cell proliferation kits.
(§2) Table 1 relates to the concentration in nM of (R)-2-amino-7-[2-(6-methoxy-pyridin-2-yl)-phenyl]-4-methyl-7,8-dihydro-6H-pyrido[4,3-d]pyrimidin-5-one which inhibits cell proliferation by 50% (IC50). […]

In experiment [2] the test system is LXFL 1176. The experiment can be described thus: Clonogenic assay, LXFL 1176. The settings on record: Homo sapiens, Lung, non-small cell, Mucous large cell lung carcinoma, soft agar, read-out: IC50 (colony formation). Here is the method:
(§3) The anticancer activity of (R)-2-amino-7-[2-(6-methoxy-pyridin-2-yl)-phenyl]-4-methyl-7,8-dihydro-6H-pyrido[4,3-d]pyrimidin-5-one is evaluated in 30 human tumor xenografts in vitro using a clonogenic assay. In this assay, human cells derived from cancer patients are evaluated for the capacity of (R)-2-amino-7-[2-(6-methoxy-pyridin-2-yl)-phenyl]-4-methyl-7,8-dihydro-6H-pyrido[4,3-d]pyrimidin-5-one to inhibit the formation of 3 dimensional colonies. […] The tumor xenografts which have never been cultured in cell culture plastic dishes are isolated from nude mice. Tumor cell suspensions are prepared and incubated in 24 well plates containing layers of soft agar. Under these conditions a special subpopulation of cells selectively grows to colonies. (R)-2-amino-7-[2-(6-methoxy-pyridin-2-yl)-phenyl]-4-methyl-7,8-dihydro-6H-pyrido[4,3-d]pyrimidin-5one is tested in 6 concentrations up to 1000 nM. The tumor test panel comprises 1 to 10 models of 12 different human tumor types, which were bladder cancer, colon, gastric, non small cell lung (adeno, squamous cell, and large cell), small cell lung, mammary, ovary, and prostate cancer, as well as leukemia, lymphoma, melanoma, and sarcoma. Antitumor effects are recorded as inhibition of colony formation in relation to untreated controls. […]

The test system of experiment [3] is SXF 1410. The experiment in a line: Clonogenic assay, SXF 1410. The settings on record: Homo sapiens, Sarcoma, Fibroblastic osteosarcoma, soft agar, read-out: IC50 (colony formation). As to the method: as §3
Experiment [4] deals with LXFA 629. The experiment can be described thus: Clonogenic assay, LXFA 629. The conditions noted are these: Homo sapiens, Lung, non-small cell, Adenocarcinoma, soft agar, read-out: IC50 (colony formation). Here is the method: as §3
For experiment [5], the system named is LEXF CCRFCEM. The experiment in a line: Clonogenic assay, LEXF CCRFCEM. The conditions noted are these: Homo sapiens, CCRF-CEM, Leukemia, ALL, T lymphoblast, soft agar, read-out: IC50 (colony formation). Here is the method:
as §3

Experiment [6] deals with MAXF 1322. The experiment in a line: Clonogenic assay, MAXF 1322. The settings on record: Homo sapiens, Breast, Pap. adenocarcinoma, soft agar, read-out: IC50 (colony formation). Here is the method: as §3
The subject of experiment [7] is MEXF 989. The experiment in a line: Clonogenic assay, MEXF 989. The settings on record: Homo sapiens, Amelanotic melanoma, soft agar, read-out: IC50 (colony formation). Here is the method: as §3
Experiment [8] concerns LYXF U937. The experiment can be described thus: Clonogenic assay, LYXF U937. The conditions noted are these: Homo sapiens, U-937, Histiocytic lymphoma, soft agar, read-out: IC50 (colony formation). As to the method:
as §3

Experiment [9] concerns PRXF MRIH1579. The experiment in a line: Clonogenic assay, PRXF MRIH1579. The conditions noted are these: Homo sapiens, Prostate, Adenocarcinoma, soft agar, read-out: IC50 (colony formation). As to the method: as §3
Experiment [10] has as its system BT474. The experiment can be described thus: Cell proliferation assay, BT474 (breast). The conditions noted are these: Homo sapiens, BT-474, 72 hours in presence of compound. As to the method: as §1, §2
Experiment [11] has as its system A375m. The experiment can be described thus: Cell proliferation assay, A375m (melanoma). The conditions noted are these: 72 hours in presence of compound. Here is the method: as §1, §2
Experiment [12] has as its system CXF 214. The experiment can be described thus: Clonogenic assay, CXF 214. The conditions noted are these: Homo sapiens, Stomach, Adenocarcinoma, soft agar, read-out: IC50 (colony formation). As to the method: as §3
The test system of experiment [13] is LXFA 526. The experiment can be described thus: Clonogenic assay, LXFA 526. The settings on record: Homo sapiens, Lung, non-small cell, Adenocarcinoma, soft agar, read-out: IC50 (colony formation). Here is the method: as §3
For experiment [14], the system named is PRXF PC3M. The experiment in a line: Clonogenic assay, PRXF PC3M. The conditions noted are these: Homo sapiens, PC-3M, Prostate, Adenocarcinoma, metastatic, soft agar, read-out: IC50 (colony formation). As to the method: as §3
Experiment [15] relates to CXF 1103. The experiment can be described thus: Clonogenic assay, CXF 1103. The settings on record: Homo sapiens, CXF1103, Colon, Adenocarcinoma, soft agar, read-out: IC50 (colony formation). Here is the method:
as §3

The subject of experiment [16] is OVXF 899. The experiment can be described thus: Clonogenic assay, OVXF 899. The conditions noted are these: Homo sapiens, Ovary, Pap. serous adenocarcinoma, soft agar, read-out: IC50 (colony formation). As to the method:
as §3

Experiment [17] concerns GTL-16. The experiment in a line: Cell proliferation assay, GTL-16 (gastric). The conditions noted are these: Homo sapiens, 72 hours in presence of compound. As to the method: as §1, §2
For experiment [18], the system named is CXF 243. The experiment can be described thus: Clonogenic assay, CXF 243. The settings on record: Homo sapiens, Colon, Adenocarcinoma, soft agar, read-out: IC50 (colony formation). As to the method: as §3
In experiment [19] the test system is PRXF 22RV1. The experiment in a line: Clonogenic assay, PRXF 22RV1. The conditions noted are these: Homo sapiens, Prostate carcinoma, soft agar, read-out: IC50 (colony formation). As to the method: as §3

Consider 1 molecule from patent US20130045983A1, “HSP90 INHIBITORS FOR THERAPEUTIC TREATMENT” (Novartis AG, priority 2008, published 2013).

Usually GI50 stands for the concentration at which growth is held to half of that of the control. One may read the IC50 as the midpoint of a concentration-inhibition curve.

With `COc1cccc(-c2ccccc2[C@H]2Cc3nc(N)nc(C)c3C(=O)N2)n1` [(R)-2-amino-7-[2-(6-methoxy-pyridin-2-yl)-phenyl]-4-methyl-7,8-dihydro-6H-pyrido[4,3-d]pyrimidin-5-one], the 50% growth inhibitory concentration (GI50) in experiment [1] is 0.02 µM; in experiment [10] it was 0.006 µM; in [11], 0.036 µM; in experiment [17], 0.018 µM. In addition, the half-inhibitory concentration (IC50) was 0.021 µM in [2]; over 1 µM in experiment [3]; 0.027 µM in experiment [4]; 0.027 µM in experiment [5]; 0.052 µM in experiment [6]; 0.017 µM in experiment [7]. The IC50 was 0.028 µM in experiment [8]; over 1 µM in [9]; over 1 µM in [12]; 0.036 µM in experiment [13]; 0.276 µM in experiment [14]; 0.027 µM in [15]. Further, the values for the IC50 in [16], in [18] and in experiment [19] were over 0.1 µM, 0.044 µM and 0.023 µM, respectively.
